Test results: patent US9849174B2, “Methods and compositions related to immunogenic fibrils” (The Board of Regents of the University of Texas System, priority 2009, dated 2017)
“Also recorded” adds a separate entry of the source.

What was measured:
rat myocardium = conditions: in vivo; cited from earlier work
mouse myocardium = conditions: in vivo; cited from earlier work
C57BL/6 mice = assay: Subcutaneous immunization of mice, serum antibody titers and isotypes by ELISA (Example 1); assay type: in vivo
Procedure: To investigate how fibrillization affected the immunogenicity of OVA, C57BL/6 mice were immunized subcutaneously with the different peptides and boosted with additional peptide at 28 days (see methods). Serum was collected seven days after the boost, and levels of various immunoglobulins were measured.
Immunizations. […] Stock solutions were then diluted in sterile, endotoxin-free PBS to working concentrations. […] CFA-adjuvanted groups received the same volume and total peptide dose, prepared by emulsifying peptide/PBS solutions 1:1 in CFA. […] CFA groups were boosted in incomplete Freund's adjuvant (IFA). Mice receiving mixtures of Q11 and OVA received 100 nmol of each peptide in the first injection and 50 nmol of each in the second. Seven days after the boost, the mice were sacrificed, and sera and spleens were harvested.
Determination of antibody titers. High-binding ELISA plates (eBioscience) were coated with either 20 μg/mL peptide in PBS or PBS alone (for uncoated background subtraction) overnight at 4° C. […] To determine titers for each antiserum, background absorbance values from uncoated wells were subtracted from coated wells, and net absorbances were compared to cutoff values. The cutoff consisted of the mean plus three times the standard deviation of the negative control group (mice receiving OVA without adjuvant) for each corresponding dilution. Any sample dilutions having absorbances above this cutoff value were considered positive readings. The titer was considered as the highest dilution for which it and all lower dilutions had positive readings. If no positive dilutions were present the titer was considered to be 10^2. […] Antibody isotypes were analyzed similarly using a mouse monoclonal antibody kit containing goat anti-mouse IgG1, IgG2a, IgG2b, IgG3, and IgM (Sigma).

mice = conditions: mouse, in vivo; cited from earlier work
[1] = ranges: high and low values among three batches for each peptide
Procedure: Endotoxin levels of all formulations were tested using a Limulus Amebocyte Lystae (LAL) chromogenic end point assay (Lonza, USA).
To account for batch-to-batch variability three different sets of peptides were synthesized for immunizing mice.

[2] = system: primary human endothelial cells; conditions: cited from earlier work
[3] = target: T1, streptavidin-conjugated gold particles (Streptomyces avidinii, UniProt P22629); assay: Streptavidin-gold labelling of fibrils imaged by TEM; assay type: binding; conditions: 5 nm streptavidin-conjugated gold
T1 construct: purchased Sigma
T1 sequence (P22629 25-183): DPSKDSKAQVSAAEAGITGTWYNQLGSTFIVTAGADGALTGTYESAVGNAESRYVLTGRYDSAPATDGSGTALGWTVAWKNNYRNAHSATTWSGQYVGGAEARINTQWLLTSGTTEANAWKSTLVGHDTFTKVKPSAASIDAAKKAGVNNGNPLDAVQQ
Text: The availability of the OVA epitope on the surface of O-Q11 nanofibers was confirmed by TEM and by ELISA. To label epitopes in TEM samples, an N-terminally biotinylated O-Q11 was synthesized with a single biotin tag directly adjacent to the OVA sequence. This biotinylated peptide produced fibrils that appeared morphologically similar to O-Q11 (FIG. 2D). Five-nanometer streptavidin-conjugated gold particles were then used to probe epitope availability on the fibril surface, with unmodified Q11 serving as a negative control. […] To confirm this finding and to quantify the availability of the entire epitope, ELISA was employed. Plates coated with OVA and O-Q11 peptides were probed with antisera from mice immunized with OVA, either with or without complete Freund's adjuvant (CFA).
Transmission Electron Microscopy. Peptides were dissolved in deionized water and mixed 6:1 with PBS to produce working peptide concentrations of 330 μM. After fibrillizing for 4h, peptides were applied to 400 mesh gold grids with carbon support films, negative-stained with 1% uranyl acetate, and imaged on a Tecnai F30 TEM. For gold staining, prior to negative-staining grids were placed upside-down on a droplet of blocking solution (0.2% acetylated BSA, 0.1% gelatin from cold water fish skin in PBS) for 5 min, then for 2 h on a droplet of 5 nm colloidal gold conjugated to streptavidin (Sigma). […]

CFSE labeled OTII cells = assay: Adoptive transfer of CFSE-labeled OTII T cells and immunization; assay type: in vivo, mice; conditions: 100 nmol s.c., five days after immunization, spleen and lymph nodes
Procedure: Antibody responses to self-assembled peptides are T cell-dependent. […] To determine the requirement for T cells, an adoptive T cell transfer assay was performed. Specifically, mice were injected with CFSE labeled […] cells, which express receptors for the H-2^b restricted OVA epitope. Antigen-mediated proliferation causes a decrease in the CFSE intensity which can be detected by flow cytometry.
Adoptive Transfer of T cells OTII transgenic mice on C57BL/6 background, whose T cells recognize the OVA peptide and carry a marker to distinguish them from naïve T cells from B6 mice (CD90.1 congenic). In vivo CD4+ T cell proliferation was analyzed after adoptive transfer into mice and immunization with the peptides. Briefly, splenocytes and lymph nodes of OTII+ C57BL/6 mice were processed into a single cell suspension and enriched for CD4+ T cells, by negative magnetic separation (Miltenyi Biotec). […] After staining, cells were washed twice with FACS buffer and samples were run on the LSR-II (BD Biosciences, NJ) flow cytometer and analyzed for evidence of proliferation as indicated by dilution of CFSE intensity using. FlowJo cytometry analysis software (Tree Star, OR) was used to analyze and quantify the results. […]

Substance	Tissue responses (rat myocardium)	Tissue responses (mouse myocardium)	Total IgG response (C57BL/6 mice; delivered in CFA)	Total IgG response (C57BL/6 mice; delivered with or without CFA)	Total IgG response (C57BL/6 mice; peptide in PBS without added adjuvant, s.c., boost day 28, serum 7 days after boost)	Antibody responses (mice)	Endotoxin [1]	Cell death / cytotoxicity in primary cell cultures [2]	Binding of streptavidin-gold to fibrils [3]	Transferred cells that proliferated (shift in CFSE intensity) (CFSE labeled OTII cells)
n-RARADADARARADADA-c [RAD16-II]	Negligible tissue responses	Negligible tissue responses								
Ac-QQKFQFQFEQQ-NH2 [Peptide Q11, Ac-QQKFQFQFEQQ-Am]			non-immunogenic even in CFA	did not raise any detectable IgG	did not elicit a response	little to no antibody responses	0.024-0.098 EU/mL	did not induce cell death	negligible numbers of particles; also recorded: did not bind streptavidin-gold	negligible shift in CFSE intensity
